These results are taken from paper PMC10764553, “Characterization of a thermophilic and glucose-tolerant GH1 β-glucosidase from hot springs and its prospective application in corn stover degradation” (Frontiers in Microbiology, 2023).

Experiment [1] has as its system T1, LQBG8.
T1 construct: differs from Tepidiforma bonchosmolovskayae WP158066159.1 only at residue 48 (Ser in LQBG8, Gly there)
The experiment is described as follows: glucose release (glucose oxidase-peroxidase), Lineweaver-Burk. Type of experiment: biochemical. The note with it: 70 °C, pH 5.6; cellobiose 0-20 mg/mL (Km lies above the tested range).

For experiment [2], the system named is T1, LQBG8. Description: p-nitrophenol release at […] nm. Type of experiment: biochemical. The note with it: optimal temperature (70 °C); pH not stated for this assay.

SMILES strings stand for the structures.

As for `OC[C@H]1O[C@@H](O[C@H]2[C@H](O)[C@@H](O)C(O)O[C@@H]2CO)[C@H](O)[C@@H](O)[C@@H]1O` (some centres unmarked) [cellobiose], the Km (as a rule, the substrate concentration at which the rate is half of its maximum) with LQBG8 [1] is recorded as 28 ± 1.9 mg/mL. Take `O=[N+]([O-])c1ccc(O[C@@H]2O[C@H](CO)[C@@H](O)[C@H](O)[C@H]2O)cc1` [p-nitrophenyl-β-D-glucopyranoside]: the Km with LQBG8 [2] was found to be 260 ± 10 µM.
